According to patent publication US20210171554A1, “BENZOTHIOPHENE ESTROGEN RECEPTOR MODULATORS TO TREAT MEDICAL DISORDERS” (G1 Therapeutics, Inc., priority 2018, published 2021):

Tests used:
estrogen receptor = biological target: T1, estrogen receptor (Homo sapiens, UniProt P03372); experiment: Estrogen Receptor (ER) Degradation Assay (In-Cell Western, MCF7 cells); format: cell-based; design: key to % Estrogen Receptor Remaining: **** denotes 0-0% Estrogen Receptor remaining; *** denotes 417% Estrogen Receptor remaining; ** denotes 719% Estrogen Receptor remaining; * denotes 9110% Estrogen Receptor remaining; details: for DC50: 24 hours incubation, In-Cell Western, read-out: Estrogen Receptor Degradation Assay IC50; for % Estrogen Receptor Remaining: vehicle set to 100% ER
T1 construct: MCF7 cells, which are estrogen receptor positive; endogenous in cells; host or cells: MCF7
T1 sequence (P03372 1-595): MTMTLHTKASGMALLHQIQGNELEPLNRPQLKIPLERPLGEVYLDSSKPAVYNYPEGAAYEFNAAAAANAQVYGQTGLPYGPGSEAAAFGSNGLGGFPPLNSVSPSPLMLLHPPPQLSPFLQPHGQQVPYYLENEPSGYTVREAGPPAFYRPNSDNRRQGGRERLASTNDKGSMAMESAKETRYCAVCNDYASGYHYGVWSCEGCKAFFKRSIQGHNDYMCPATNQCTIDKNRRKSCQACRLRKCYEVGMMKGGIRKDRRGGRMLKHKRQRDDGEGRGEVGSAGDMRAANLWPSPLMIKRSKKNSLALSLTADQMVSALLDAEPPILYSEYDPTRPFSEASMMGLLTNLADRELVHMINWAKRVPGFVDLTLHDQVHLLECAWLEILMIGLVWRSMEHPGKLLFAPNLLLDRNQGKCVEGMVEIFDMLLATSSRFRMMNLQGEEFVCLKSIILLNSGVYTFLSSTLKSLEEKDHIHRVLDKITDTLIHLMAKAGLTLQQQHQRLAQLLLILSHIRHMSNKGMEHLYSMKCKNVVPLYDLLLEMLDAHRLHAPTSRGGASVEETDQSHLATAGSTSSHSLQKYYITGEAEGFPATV
Description: A screening strategy was implemented utilizing an In-Cell Western assay to measure their ability to degrade the estrogen receptor in vitro. MCF7 cells, which are estrogen receptor positive, were plated at a cell density of […] into black walled clear bottom 96-well plates. Cells were incubated in phenol red free Dulbecco's Modified Eagle Media (DMEM) supplemented with 8% charcoal-stripped fetal bovine calf serum for 24 hours in a humidified 37° C. incubator. Concentrated stock compounds were diluted to 10× in complete media. Compounds were added to the plated cells in a dose-dependent manner ranging from 1E-12 to 1E-05 M and incubated for an additional 24 hours at 37° C. Culture medium was removed from the culture plates by gentle inversion. Cells were fixed in 4% paraformaldehyde in 1×phosphate buffered saline-calcium magnesium free (PBS-CMF) for 15 minutes at room temperature, washed 3 times for 5 minutes each in 1×PBS-CMF. Cells were permeabilized in immunofluorescence (IF) blocking buffer (Cell Signaling #12411) containing 0.3% Triton X100. Cells were washed 3 times for 5 minutes each in 1×PBS-CMF and incubated in estrogen receptor α (D6R2W) rabbit primary antibody (Cell Signaling #13258) diluted 1:300 in IF antibody dilution buffer (Cell Signaling #12378). Cells were washed 3 times for 5 minutes each in 1×PBS-CMF and stained with goat anti-rabbit (Biotium #CF770) secondary antibody diluted 1:2000 in IF antibody dilution buffer and normalizing stain CellTag 700 diluted 1:500 (Licor #926-41090). ER protein expression was assessed by the Licor Odyssey CLx imaging system using Image Studio v5.2. Data is processed utilizing GraphPad Prism 7 by subtracting background from the vehicle and setting the vehicle to 100% ER activity, followed by comparing treated samples to vehicle.
(§1) In the below table for the Estrogen Receptor Degradation Assay and the Human ERα Reporter Assay: […]

[1] = biological target: T2, human estrogen receptor (ERα) (Homo sapiens, UniProt P03372); experiment: Human ERα Reporter Assay (Indigo Biosciences, antagonist mode); format: cell-based; details: antagonist activity, reporter cells with 17β-estradiol 8E-10 M, 24 hours
T2 construct: purchased Indigo Biosciences #1B00401
T2 sequence (P03372 1-595): T1 sequence (P03372 1-595)
Description: All reagents used in this assay was supplied in the Human ERα Reporter Assay by Indigo Biosciences #1B00401. In an effort to screen selective estrogen receptor degraders (SERDs), the Human ERα Reporter Assay, supplied by Indigo Biosciences, was utilized to quantify antagonist functional activity against the human estrogen receptor. Reporter cells were thawed at 37° C. and added to pre-warmed to 37° C. cell recovery medium (CRM). Stock concentration of 17β-estradiol was serially diluted in CRM. Diluted 17β-estradiol was added to CRM containing reporter cells resulting in a working concentration of 1.6 nM (2×). Cells plus 17β-estradiol were dispensed in a kit-supplied white walled 96-well plate. Concentrated stocks of test compounds were diluted to 2× working concentrations in cell screening medium (CSM). 2× concentrated compounds were added to the plated cells in a dose-dependent manner resulting in a final concentration range of 1E-11 to 1E-5 M and a final […] concentration of 8E-10 M. Assay plates were incubated for 24 hours in a humidified 37° C. incubator. Culture medium was removed from the assay plates by inversion. Detection substrate and buffer was warmed to room temperature, mixed thoroughly, and immediately added to the assay plates. Assay plates were incubated for 15 minutes at room temperature protected from light. Luminescence was measured in a Synergy HTX luminescence plate reader. Data is processed utilizing GraphPad Prism 7 by graphing the relative light units measured at each compound concentration.
as §1

| SMILES | DC50 (estrogen receptor) [nM] | % Estrogen Receptor Remaining (estrogen receptor) | IC50 [1] [nM] |
| --- | --- | --- | --- |
| Cc1cc(F)cc(C)c1C(=O)c1sc2c(F)c(O)ccc2c1Oc1ccc(OC2CCN(CCCF)C2)cc1 (stereo in doubt) [Compound 112, (R)-(4-fluoro-2,6-dimethylphenyl)(7-fluoro-3-(4-((1-(3-fluoropropyl)pyrrolidin-3-yl)oxy)phenoxy)-6-hydroxybenzo[b]thiophen-2-yl)methanone] | < 1000 | **** (**** denotes 0-0% Estrogen Receptor remaining) | < 1000 |
| Cc1cc(F)cc(C)c1C(=O)c1sc2cc(O)c(F)cc2c1Oc1ccc(OC2CCN(CCCF)C2)cc1 (stereo in doubt) [Compound 113, (R)-(4-fluoro-2,6-dimethylphenyl)(5-fluoro-3-(4-((1-(3-fluoropropyl)pyrrolidin-3-yl)oxy)phenoxy)-6-hydroxybenzo[b]thiophen-2-yl)methanone] | < 1000 | **** (**** denotes 0-0% Estrogen Receptor remaining) | < 1000 |
| Cc1cc(F)cc(C)c1C(=O)c1sc2cc(O)ccc2c1Oc1ccc(O[C@H]2CCN(CCCF)C2)cc1 [Compound 100, (S)-(4-fluoro-2,6-dimethylphenyl)(3-(4-((1-(3-fluoropropyl)pyrrolidin-3-yl)oxy)phenoxy)-6-hydroxybenzo[b]thiophen-2-yl)methanone] | < 1000 | **** (**** denotes 0-0% Estrogen Receptor remaining) | < 1000 |
| Cc1cc(F)cc(C)c1C(=O)c1sc2cc(O)ccc2c1Oc1ccc(O[C@H]2CCNC2)cc1 [Compound 101, (S)-(4-fluoro-2,6-dimethylphenyl)(6-hydroxy-3-(4-(pyrrolidin-3-yloxy)phenoxy)benzo[b]thiophen-2-yl)methanone] | < 1000 | *** | < 1000 |
| Cc1cc(F)cc(C)c1C(=O)c1sc2cc(O)ccc2c1Oc1ccc(O[C@@H]2CCN(CCCF)C2)cc1 [Compound 102, (R)-(4-fluoro-2,6-dimethylphenyl)(3-(4-((1-(3-fluoropropyl)pyrrolidin-3-yl)oxy)phenoxy)-6-hydroxybenzo[b]thiophen-2-yl)methanone] | < 1000 | **** (**** denotes 0-0% Estrogen Receptor remaining) | < 1000 |
| CCNCCc1ccc(Oc2c(C(=O)c3c(C)cc(F)cc3C)sc3cc(C(=O)O)ccc23)cc1 [Compound 106, 3-(4-(2-(ethylamino)ethyl)phenoxy)-2-(4-fluoro-2,6-dimethylbenzoyl)benzo[b]thiophene-6-carboxylic acid] | < 1000 | *** | < 1000 |
| Cc1cc(F)cc(C)c1C(=O)c1sc2cc(O)ccc2c1-c1ccc(O[C@H]2CCN(CCCF)C2)cc1 [Compound 108, (S)-(4-fluoro-2,6-dimethylphenyl)(3-(4-((1-(3-fluoropropyl)pyrrolidin-3-yl)oxy)phenyl)-6-hydroxybenzo[b]thiophen-2-yl)methanone] | < 1000 | ** | < 50000 |
| Cc1cc(F)cc(C)c1C(=O)c1sc2cc(O)ccc2c1-c1ccc(OCCN2CCCC2)cc1 [Compound 109, (4-fluoro-2,6-dimethylphenyl)(6-hydroxy-3-(4-(2-(pyrrolidin-1-yl)ethoxy)phenyl)benzo[b]thiophen-2-yl)methanone] | < 1000 | *** | < 1000 |
| Cc1cc(F)cc(C)c1C(=O)c1sc2cc(O)ccc2c1-c1ccc(O[C@@H]2CCN(CCCF)C2)cc1 [Compound 110, (R)-(4-fluoro-2,6-dimethylphenyl)(3-(4-((1-(3-fluoropropyl)pyrrolidin-3-yl)oxy)phenyl)-6-hydroxybenzo[b]thiophen-2-yl)methanone] | < 1000 | *** | < 1000 |
| Cc1cc(F)cc(C)c1C(=O)c1sc2cc(O)ccc2c1Oc1ccc(OCCN2CCC(CCCF)C2)cc1 (stereo not shown) [Compound 115, (4-fluoro-2,6-dimethylphenyl)(3-(4-(2-(3-(3-fluoropropyl)pyrrolidin-1-yl)ethoxy)phenoxy)-6-hydroxybenzo[b]thiophen-2-yl)methanone] | < 1000 | ** |  |
| Cc1cc(F)cc(C)c1C(=O)c1sc2cc(S(N)(=O)=O)ccc2c1Oc1ccc(O[C@H]2CCN(CCCF)C2)cc1 [Compound 116, (S)-2-(4-fluoro-2,6-dimethylbenzoyl)-3-(4-((1-(3-fluoropropyl)pyrrolidin-3-yl)oxy)phenoxy)benzo[b]thiophene-6-sulfonamide] | < 1000 | **** (**** denotes 0-0% Estrogen Receptor remaining) |  |
